# Values of other authors as cited in US6617356B2, “Gel system for oral and topical administration of water insoluble and/or water intolerant drugs and supplements” (priority 2000, dated 2003).
# Conditions: oral, 20 grams creatine monohydrate per day for five days
smiles,measurement,value
CN(CC(=O)O)C(=N)N.O [creatine monohydrate],Muscle total creatine concentration,increase
same,Peak and total work production,cumulative increase
